Measurements reported in ChEMBL document CHEMBL3804786, “Novel 1,3-thiazolidin-4-one derivatives as promising anti-Candida agents endowed with anti-oxidant and chelating properties” (Eur J Med Chem, 2016).
≈ marks a conversion by molar mass, not a printed value.

How the values were obtained:
[1] = test system: Staphylococcus warneri; assay: Antibacterial activity against Staphylococcus warneri clinical isolate after 18 to 22 hrs by broth microdilution method; type: functional
[2] = test system: Candida parapsilosis; assay: Antifungal activity against Candida parapsilosis clinical isolate after 24 hrs by broth microdilution method; type: functional; details: Lodderomyces parapsilosis
[3] = test system: Candida tropicalis; assay: Antifungal activity against Candida tropicalis clinical isolate after 24 hrs by broth microdilution method; type: functional
[4] = test system: Enterobacter sp.; assay: Antibacterial activity against Enterobacter spp. clinical isolate after 18 to 22 hrs by broth microdilution method; type: functional
[5] = test system: [Candida] sake; assay: Antifungal activity against Candida sake clinical isolate after 24 hrs by broth microdilution method; type: functional; details: Fermentozyma sake
[6] = test system: Nakaseomyces glabratus; assay: Antifungal activity against Candida glabrata clinical isolate after 24 hrs by broth microdilution method; type: functional
[7] = test system: Enterococcus faecalis; assay: Antibacterial activity against Streptococcus faecalis clinical isolate after 18 to 22 hrs by broth microdilution method; type: functional
[8] = test system: Klebsiella oxytoca; assay: Antibacterial activity against Klebsiella oxytoca clinical isolate after 18 to 22 hrs by broth microdilution method; type: functional
[9] = test system: Candida albicans; assay: Antifungal activity against Candida albicans clinical isolate after 24 hrs by broth microdilution method; type: functional
[10] = test system: Streptococcus sp. (viridans group); assay: Antibacterial activity against Streptococcus alpha-hemolyticus clinical isolate after 18 to 22 hrs by broth microdilution method
[11] = test system: Proteus mirabilis; assay: Antibacterial activity against Proteus mirabilis clinical isolate after 18 to 22 hrs by broth microdilution method; type: functional
[12] = test system: Escherichia coli; assay: Antibacterial activity against Escherichia coli after clinical isolate 18 to 22 hrs by broth microdilution method; type: functional
[13] = test system: Pichia kudriavzevii; assay: Antifungal activity against Candida krusei clinical isolate after 24 hrs by broth microdilution method; type: functional
[14] = test system: Staphylococcus aureus; assay: Antibacterial activity against Staphylococcus aureus clinical isolate after 18 to 22 hrs by broth microdilution method; type: functional

SMILES	MIC [1] [µg/mL]	MIC [2] [µg/mL]	MIC [3] [µg/mL]	MIC [4] [µg/mL]	MIC [5] [µg/mL]	MIC [6] [µg/mL]	MIC [7] [µg/mL]	MIC [8] [µg/mL]	MIC [9] [µg/mL]	MIC [10] [µg/mL]	MIC [11] [µg/mL]	MIC [12] [µg/mL]	MIC [13] [µg/mL]	MIC [14] [µg/mL]
CC(C)=N/N=C1\SCC(=O)N1Cc1ccc(Cl)cc1	> 256	2 (≈ 6.76 µM)	8 (≈ 27 µM)	> 256	4 (≈ 13.5 µM)	2 (≈ 6.76 µM)	> 256	> 256	4 (≈ 13.5 µM)	> 256	> 256	> 256	8 (≈ 27 µM)	> 256
C/C(=N\N=C1/SCC(=O)N1Cc1cccc(F)c1)c1ccccn1	> 256	2 (≈ 5.84 µM)	8 (≈ 23.4 µM)	> 256	4 (≈ 11.7 µM)	2 (≈ 5.84 µM)	> 256	> 256	2 (≈ 5.84 µM)	> 256	> 256	> 256	8 (≈ 23.4 µM)	> 256
C/C(=N\N=C1/SCC(=O)N1Cc1ccccc1Cl)c1cccs1	> 256	8 (≈ 22 µM)	2 (≈ 5.5 µM)	> 256	8 (≈ 22 µM)	4 (≈ 11 µM)	> 256	> 256	4 (≈ 11 µM)	> 256	> 256	> 256	8 (≈ 22 µM)	> 256
CC(C)=N/N=C1\SCC(=O)N1Cc1ccccc1Cl	> 256	8 (≈ 27 µM)	16 (≈ 54.1 µM)	> 256	2 (≈ 6.76 µM)	2 (≈ 6.76 µM)	> 256	> 256	2 (≈ 6.76 µM)	> 256	> 256	> 256	8 (≈ 27 µM)	> 256
CC(C)=N/N=C1\SCC(=O)N1Cc1cccc(F)c1	> 256	2 (≈ 7.16 µM)	4 (≈ 14.3 µM)	> 256	8 (≈ 28.6 µM)	4 (≈ 14.3 µM)	> 256	> 256	4 (≈ 14.3 µM)	> 256	> 256	> 256	4 (≈ 14.3 µM)	> 256
O=C1CS/C(=N\N=C2CCCC2)N1Cc1cccc(F)c1	> 256	4 (≈ 13.1 µM)	16 (≈ 52.4 µM)	> 256	8 (≈ 26.2 µM)	2 (≈ 6.55 µM)	> 256	> 256	4 (≈ 13.1 µM)	> 256	> 256	> 256	2 (≈ 6.55 µM)	> 256
CC(C)=N/N=C1\SCC(=O)N1Cc1ccc(F)cc1	> 256	2 (≈ 7.16 µM)	16 (≈ 57.3 µM)	> 256	8 (≈ 28.6 µM)	4 (≈ 14.3 µM)	> 256	> 256	8 (≈ 28.6 µM)	> 256	> 256	> 256	16 (≈ 57.3 µM)	> 256
O=C1CS/C(=N\N=C2CCCC2)N1Cc1ccc(F)cc1	> 256	2 (≈ 6.55 µM)	16 (≈ 52.4 µM)	> 256	8 (≈ 26.2 µM)	4 (≈ 13.1 µM)	> 256	> 256	8 (≈ 26.2 µM)	> 256	> 256	> 256	8 (≈ 26.2 µM)	> 256
CC(C)=N/N=C1\SCC(=O)N1Cc1cccc(Cl)c1	> 256	4 (≈ 13.5 µM)	2 (≈ 6.76 µM)	> 256	4 (≈ 13.5 µM)	4 (≈ 13.5 µM)	> 256	> 256	8 (≈ 27 µM)	> 256	> 256	> 256	2 (≈ 6.76 µM)	> 256
O=C1CS/C(=N\N=C2CCCC2)N1Cc1ccccc1Cl	> 256	8 (≈ 24.9 µM)	4 (≈ 12.4 µM)	> 256	2 (≈ 6.21 µM)	4 (≈ 12.4 µM)	> 256	> 256	2 (≈ 6.21 µM)	> 256	> 256	> 256	8 (≈ 24.9 µM)	> 256
O=C1CS/C(=N\N=C2CCCC2)N1Cc1cccc(Cl)c1	> 256	4 (≈ 12.4 µM)	8 (≈ 24.9 µM)	> 256	2 (≈ 6.21 µM)	4 (≈ 12.4 µM)	> 256	> 256	4 (≈ 12.4 µM)	> 256	> 256	> 256	16 (≈ 49.7 µM)	> 256
C/C(=N\N=C1/SCC(=O)N1Cc1ccccc1Cl)c1ccccn1	> 256	8 (≈ 22.3 µM)	2 (≈ 5.57 µM)	> 256	4 (≈ 11.1 µM)	4 (≈ 11.1 µM)	> 256	> 256	4 (≈ 11.1 µM)	> 256	> 256	> 256	4 (≈ 11.1 µM)	> 256
C[C@@H]1[C@H](O)[C@@H](C)/C=C/C=C/C=C/C=C/C=C/C=C/C=C/[C@H](O[C@@H]2O[C@H](C)[C@@H](O)[C@H](N)[C@@H]2O)C[C@@H]2O[C@](O)(C[C@@H](O)C[C@@H](O)[C@H](O)CC[C@@H](O)C[C@@H](O)CC(=O)O[C@H]1C)C[C@H](O)[C@H]2C(=O)O [AMPHOTERICIN B]	–	2 (≈ 2.16 µM)	2 (≈ 2.16 µM)	–	2 (≈ 2.16 µM)	4 (≈ 4.33 µM)	–	–	4 (≈ 4.33 µM)	–	–	–	4 (≈ 4.33 µM)	–
CC(C)(O/N=C(\C(=O)N[C@@H]1C(=O)N2C(C(=O)[O-])=C(C[n+]3ccccc3)CS[C@H]12)c1csc(N)n1)C(=O)O [CEFTAZIDIME]	4 (≈ 7.32 µM)	–	–	8 (≈ 14.6 µM)	–	–	4 (≈ 7.32 µM)	8 (≈ 14.6 µM)	–	4 (≈ 7.32 µM)	8 (≈ 14.6 µM)	4 (≈ 7.32 µM)	–	2 (≈ 3.66 µM)
OC(Cn1cncn1)(Cn1cncn1)c1ccc(F)cc1F [FLUCONAZOLE]	–	2 (≈ 6.53 µM)	2 (≈ 6.53 µM)	–	2 (≈ 6.53 µM)	2 (≈ 6.53 µM)	–	–	2 (≈ 6.53 µM)	–	–	–	2 (≈ 6.53 µM)	–
CC(=O)N1CCN(c2ccc(OCC3COC(Cn4ccnc4)(c4ccc(Cl)cc4Cl)O3)cc2)CC1 (stereo unspecified) [KETOCONAZOLE]	–	2 (≈ 3.76 µM)	2 (≈ 3.76 µM)	–	4 (≈ 7.53 µM)	2 (≈ 3.76 µM)	–	–	2 (≈ 3.76 µM)	–	–	–	4 (≈ 7.53 µM)	–
Clc1ccc(COC(Cn2ccnc2)c2ccc(Cl)cc2Cl)c(Cl)c1 (stereo unspecified) [MICONAZOLE]	–	4 (≈ 9.61 µM)	2 (≈ 4.81 µM)	–	2 (≈ 4.81 µM)	4 (≈ 9.61 µM)	–	–	2 (≈ 4.81 µM)	–	–	–	4 (≈ 9.61 µM)	–
Clc1ccc(C(Cn2ccnc2)OCc2ccsc2Cl)c(Cl)c1 (stereo unspecified) [TIOCONAZOLE]	–	8 (≈ 20.6 µM)	8 (≈ 20.6 µM)	–	4 (≈ 10.3 µM)	4 (≈ 10.3 µM)	–	–	8 (≈ 20.6 µM)	–	–	–	8 (≈ 20.6 µM)	–
